We go through 4 molecules from patent US12233068B2, “Combination of active agents for the treatment of progressive fibrosing interstitial lung diseases (PF-ILD)” (Boehringer Ingelheim International GmbH, priority 2017, dated 2025).

Like-named read-outs stand apart in the source and are kept apart here.

Data set [1] relates to FGF plus IL-1β-stimulated proliferation of human lung fibroblasts from patients with IPF. The data set can be described thus: Cell proliferation assay (BrdU incorporation), Experiment B. It is filed as cell-based. Conditions: for IC50: n=5 donors; for IC50 of PDE4 inhibitor alone compared to IC50 of its combination with Nintedanib (proliferation): IC50 alone / IC50 with 100 nMol/L Nintedanib; for effect of the combination with Nintedanib on inhibition of fibroblast proliferation versus calculated additive curve: measured curve with 100 nMol/L Nintedanib compared with calculated additive curve (Poch & Holzmann). Here is the method:
(§1) Lung fibroblasts of IPF-patients (IPF-LF cells) grown in 96-well plates were incubated for min with different concentrations of the PDE4 inhibitors “Compound of formula III”, “Apremilast” or “Roflumilast-N-Oxide” or with a combination of each of the aforementioned PDE4-inhibitors with Nintedanib.
(§2) After compound incubation cells were stimulated with the assay-relevant stimulus and incubated for the assay—relevant time in the presence of the test compounds.
BrdU incorporated in the DNA of proliferating cells was determined by ELISA. BrdU is an analog of the DNA precursor thymidine. In proliferating cells, the DNA has to be replicated before the division can take place. If BrdU is added to the cell culture, proliferating cells will incorporate it into their DNA just like they would incorporate thymidine. The amount of BrdU in the DNA of cells can be detected with specific anti-BrdU fluorescent antibodies followed by flow cytometry or by cellular ELISA with monoclonal antibodies against BrdU.
IPF-lung fibroblasts (passage 5 to 8) were seeded in 96-well cell culture plates at 2500 cells/well with 100 μL/well FBM+supplements. 24 h after seeding the cells were washed once with FBM medium without supplements and then kept in this medium for 24 h starvation.
In experiment B1) the PDE4B-inhibitor of formula III was used as a “test compound” • in rising concentrations either alone (see full circles and black solid curve in FIG. 4) or • in rising concentrations together with a fixed concentration of 100 nMol/L of Nintedanib (see empty circles and grey solid line in FIG. 4).
In experiment B2) Apremilast was used as a “test compound” • in rising concentrations either alone (see full circles and black solid curve in FIG. 5) or • in rising concentrations together with a fixed concentration of 100 nMol/L of Nintedanib (see empty circles and grey solid line in FIG. 5).
In experiment B3) Roflumilast-N-oxide was used as a “test compound” • in rising concentrations either alone (see full circles and black solid curve in FIG. 6) or • in rising concentrations together with a fixed concentration of 100 nMol/L of Nintedanib (see empty circles and grey solid line in FIG. 6).
All test compounds were prepared 1000× in 0.1 mmol/L HCl or DMSO and a 1:3.16 dilution series was performed (in 0.1 mmol/L HCl or DMSO). To obtain 1× concentrated compound medium 1 μl of the 1000×DMSO dilution was added to 999 μl FBM.
48 h after seeding, medium was removed by suction and 90 μl compound- or starvation medium was added for 30 min
30 min after test compound pre-incubation (90 μL), 10 μl of 10× concentrated FGF plus IL-1β was added and the cells were stimulated for 92 h at a temperature of 37° C.
For this purpose the FGF and IL-1β stock solutions (250 μg/mL and 10 μg/mL respectively) were diluted in starvation medium to reach a concentration of 200 ng/mL and 300 pg/mL for FGF and IL-1β respectively. 10 μL of this stimulus medium or starvation medium was added to the indicated wells. The test compound concentration was maintained during the stimulation.
The final FGF concentration was 20 ng/mL. The final IL-1β concentration was 30 pg/mL.
Proliferation was determined by a colorimetric immunoassay for the quantification of cell proliferation, based on the measurement of BrdU incorporation during DNA synthesis. The assay was carried out according to the manufacturer's instructions.
72 h after stimulation a 1:100 dilution of BrdU in starvation medium (resulting concentration 100 μmol/L) was performed and 10 μl added per well (end-concentration per well 10 μmol/l). About 18 h later the BrdU medium was removed by suction. Cells were fixed and denatured for 30 min at room temperature with FixDenat reagent. The reagent was removed by tapping and the anti-BrdU-POD working solution was added (incubation time: 90 min). The plate was washed three times with 200 μL washing buffer before incubation with substrate solution for about 10 min. […]

Data set [2] concerns TGF-β-stimulated α-SMA protein expression of human lung fibroblasts from patients with IPF. Description: α-SMA (smooth muscle actin) protein assay (Western replacement assay, MSD), Experiment A. It is filed as cell-based. Conditions: for IC50: n=5 donors; for sign of inhibition of TGF-β-stimulated α-SMA protein expression over the concentration/inhibition curve: low PDE4-inhibitor concentrations, alone or in combination with Nintedanib. The method, then:
as §1, §2
α-SMA protein was determined by a Western-replacement assay (MSD) using monoclonal anti smooth muscle actin antibodies.
IPF-lung fibroblasts (passage 5 to 8) were seeded in 96-well cell culture plates at 4500 cells/well with 100 μL/well FBM+supplements. 24 h after seeding the cells were washed once with FBM medium without supplements and starved for 24 h.
In experiment A1) the PDE4B-inhibitor of formula III was used as a “test compound” • in rising concentrations either alone (see full circles and black solid curve in FIG. 1) or • in rising concentrations together with a fixed concentration of 100 nMol/L of Nintedanib (see empty circles and grey solid line in FIG. 1). Experiment A2)
In experiment A2) Apremilast was used as a “test compound” • in rising concentrations either alone (see full circles and black solid curve in FIG. 2) or • in rising concentrations together with a fixed concentration of 100 nMol/L of Nintedanib (see empty circles and grey solid line in FIG. 2). Experiment A3)
In experiment A3) Roflumilast-N-oxide was used as a “test compound” • in rising concentrations either alone (see full circles and black solid curve in FIG. 3) or • in rising concentrations together with a fixed concentration of 100 nMol/L of Nintedanib (see empty circles and grey solid line in FIG. 3). Test Compound Dilutions
All “test compounds” (the PDE4B-inhibitor of formula III, Apremilast or Roflumilast) were prepared 1000× in 0.1 mmol/L HCl or DMSO and a 1:3.16 dilution series was performed (in 0.1 mmol/L HCl or DMSO). To obtain 2× concentrated compound-medium a 1:500 dilution (2 μl of the 1000× dilution was added to 998 μl FBM plus 2 nmol/L PGE2) was prepared.
48 h after seeding, the medium was aspirated and FBM (100 μl per well) was added. After 1 h incubation at 37° C., 90 μl medium containing 2× concentrated compounds (at different concentrations) plus 2× concentrated PGE2 (2 nmol/L) was added for 30 min Final concentration for PGE2 was 1 nmol/L.
30 min after test compound pre-incubation (190 μL), 10 μl of 20× concentrated TGF-β was added and the cells stimulated for 48 h at a temperature of 37° C.
For this purpose the TGF-β stock solution (20 μg/mL reconstituted in 4 mmol/L sterile HCL) was diluted 1:200 in starvation medium to reach a concentration of 100 ng/mL. 10 μL of this TGF-β medium or starvation medium was added to indicated wells. The test compound concentration was maintained during the stimulation. The final TGF-β concentration was […].
48 h after stimulation supernatants were removed and stored at −80° C. for further experiments. Cells were washed once with ice cold PBS and 50 μl RIPA buffer containing 1× protease inhibitor was added per well. Lysates were incubated for 5 minutes on ice before stored at −80° C.
After thawing, 25 μl of each lysate was transferred to the membrane of the multi-array 96 well plate (MSD) and incubated for 2 h at room temperature with gentle shaking. After the incubation time, plates were washed 3 times with 200 μl 1× Tris-wash buffer (MSD) and 150 μl of 3% blocking buffer was added for 1 h. After blocking, plates were washed 3 times with 200 μl 1× Tris-wash buffer and 25 μl of the antibody solution (per plate 0.75 ml 3% blocking buffer, 2.25 ml 1× Tris-wash buffer, 1.2 μl anti-α-SMA antibody (1:2500), 15 μl goat anti-mouse sulfo-tag antibody (1:200) was added for 1 h. After AB-incubation plates were washed 3 times with 200 μl 1× Tris-wash buffer and 150 μl of 1×MSD read buffer was added per well. Plates were measured with Sector Imager (MSD). […]

In the next data set the test system is human COPD-patients. Conditions: 500 μg daily; cited from earlier work.
Another data set deals with rat. Conditions: in vivo; cited from earlier work.

In the case of `COC(=O)c1ccc2c(c1)NC(=O)/C2=C(\Nc1ccc(N(C)C(=O)CN2CCN(C)CC2)cc1)c1ccccc1` [Nintedanib], in data set [1] (Nintedanib alone, 100 nMol/L), the “inhibitory effect on human lung fibroblasts proliferation (in words)” value is “clear inhibitory effect”. For the same molecule, the “inhibitory effect on TGF-β-stimulated α-SMA protein expression (in words)” value in data set [2] (100 nM Nintedanib alone) is “no inhibitory effect”. Moreover, the “Inhibition of TGF-β-stimulated α-SMA protein expression” value in data set [2] (100 nMol/L Nintedanib alone, FIGS. 1, 2 and 3) is not above 0.
Consider `CCOc1cc([C@@H](CS(C)(=O)=O)N2C(=O)c3cccc(NC(C)=O)c3C2=O)ccc1OC` [Apremilast], for which the IC50 stood at 1.8 µM in data set [1] (Homo sapiens, Fibroblast, PDE4 inhibitor alone, IPF lung fibroblasts, read-out: IC50, inhibition of FGF plus IL-1β-stimulated proliferation); 1.6 µM in data set [1] (Homo sapiens, Fibroblast, PDE4 inhibitor in rising concentrations with fixed 100 nMol/L Nintedanib, read-out: IC50, inhibition of FGF plus IL-1β-stimulated proliferation, combination with Nintedanib); 3 µM in data set [2] (Homo sapiens, Fibroblast, PDE4 inhibitor alone, IPF lung fibroblasts, read-out: IC50, inhibition of TGF-β-stimulated α-SMA protein expression); 2 µM in data set [2] (Homo sapiens, Fibroblast, PDE4 inhibitor in rising concentrations with fixed 100 nMol/L Nintedanib, read-out: IC50, inhibition of TGF-β-stimulated α-SMA protein expression, combination with Nintedanib). Further, in data set [1], the “IC50 of PDE4 inhibitor alone compared to IC50 of its combination with Nintedanib (proliferation)” value is 1.13 fold. Also, the “effect of the combination with Nintedanib on inhibition of fibroblast proliferation versus calculated additive curve” value in data set [1] is “additive effect”. In data set [2], the “sign of inhibition of TGF-β-stimulated α-SMA protein expression over the concentration/inhibition curve” value is recorded as “negative inhibitions”.
With `O=C(Nc1c(Cl)cncc1Cl)c1ccc(OC(F)F)c(OCC2CC2)c1` [Roflumilast], in the data set with human COPD-patients, the “patients with decreased weight” value is recorded as 7.5%, the patients with diarrhea was 9.5%, the patients with headache is 4.4% and the patients with nausea is recorded as 4.7%. Further, the “gastrointestinal side effects in similar gastric emptying and intestinal transit experiments” value with rat is listed as “clear trend to show gastrointestinal side effects”.
Regarding `O=C(Nc1c(Cl)c[n+]([O-])cc1Cl)c1ccc(OC(F)F)c(OCC2CC2)c1` [Roflumilast N-Oxide], the “IC50 of PDE4 inhibitor alone compared to IC50 of its combination with Nintedanib (proliferation)” value in data set [1] turned out to be 0.82 fold. The IC50 in data set [1] (PDE4 inhibitor alone, IPF lung fibroblasts, read-out: IC50, inhibition of FGF plus IL-1β-stimulated proliferation) worked out at 0.00044 µM; in data set [1] (PDE4 inhibitor in rising concentrations with fixed 100 nMol/L Nintedanib, read-out: IC50, inhibition of FGF plus IL-1β-stimulated proliferation, combination with Nintedanib), 0.000534 µM; in data set [2] (PDE4 inhibitor alone, IPF lung fibroblasts, read-out: IC50, inhibition of TGF-β-stimulated α-SMA protein expression), 0.014 µM; in data set [2] (PDE4 inhibitor in rising concentrations with fixed 100 nMol/L Nintedanib, read-out: IC50, inhibition of TGF-β-stimulated α-SMA protein expression, combination with Nintedanib), 0.0085 µM. Moreover, the “effect of the combination with Nintedanib on inhibition of fibroblast proliferation versus calculated additive curve” value in data set [1] is “additive effect”. Besides, in data set [2], the “sign of inhibition of TGF-β-stimulated α-SMA protein expression over the concentration/inhibition curve” value was “negative inhibitions”.
